Experimental data from PubChem BioAssay (NCI).
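Step 1: Grow cells in 96-well plates. Step 2: Expose to compound for 48 hours at 5 concentrations. Step 3: Interpolate endpoints linearly; if unreached, use highest concentration. The concentration for full growth arrest is given as TGI.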

Columns and labels:
Experiment in all cases: NCI tumour cell line growth inhibition, 48 h
MCF7 breast = system: MCF7 breast
OVCAR-4 ovarian = system: OVCAR-4 ovarian
RPMI-8226 leukemia = system: RPMI-8226 leukemia
ACHN renal = system: ACHN renal
K-562 leukemia = system: K-562 leukemia
CCRF-CEM leukemia = system: CCRF-CEM leukemia
SK-MEL-2 melanoma = system: SK-MEL-2 melanoma
OVCAR-5 ovarian = system: OVCAR-5 ovarian
SN12C renal = system: SN12C renal
A498 renal = system: A498 renal

| Compound | TGI (MCF7 breast) | TGI (OVCAR-4 ovarian) | TGI (RPMI-8226 leukemia) | TGI (ACHN renal) | TGI (K-562 leukemia) | TGI (CCRF-CEM leukemia) | TGI (SK-MEL-2 melanoma) | TGI (OVCAR-5 ovarian) | TGI (SN12C renal) | TGI (A498 renal) |
| --- | --- | --- | --- | --- | --- | --- | --- | --- | --- | --- |
| N#CC(C#N)=Cn1c(=S)[nH]c2ccc([N+](=O)[O-])cc21 | > 100 µM | > 100 µM | > 100 µM | > 100 µM | > 100 µM | > 100 µM | > 100 µM | > 100 µM | > 100 µM | > 100 µM |
| O=C(NCCN(CCNC(=O)c1cccc(=O)n1O)CCNC(=O)c1cccc(=O)n1O)c1cccc(=O)n1O | > 100 µM | > 100 µM | > 100 µM | > 100 µM | > 100 µM | > 100 µM | > 100 µM | > 100 µM | > 100 µM | > 100 µM |
| NC(=O)NC(=O)c1cccc(NC(=O)CCl)c1 | 9.32 µM | 25.7 µM | 13.6 µM | 12.9 µM | > 43.4 µM | 4.16 µM | 15.1 µM | 9.49 µM | 4.8 µM | 6.39 µM |
| Cc1ccc(O)c(C(c2cc(C)ccc2O)c2cc([N+](=O)[O-])ccc2O)c1 | 33.8 µM | 28.3 µM | 50.6 µM | 27.1 µM | > 100 µM | 91 µM | 28.2 µM | 28.8 µM | 28.3 µM | 39.5 µM |
| CCOC(=O)C1=NNC(C(=O)c2ccccc2)C1c1ccccc1 (centres undefined) | 5.82 µM | > 38.3 µM | > 47.2 µM | 3.71 µM | > 100 µM | > 100 µM | 31.2 µM | 17.4 µM | 3.89 µM | > 100 µM |
| CN1CCN(Cc2ccccc2)CC1CC#N (centres undefined) | > 100 µM | > 100 µM | > 100 µM | > 100 µM | > 100 µM | > 100 µM | – | > 100 µM | > 100 µM | > 100 µM |
| c1cc2c3ccsc3c3sccc3c2s1 | > 100 µM | > 100 µM | > 100 µM | > 100 µM | > 100 µM | > 100 µM | > 100 µM | > 100 µM | > 100 µM | > 100 µM |
| CCOC(=O)c1csc(-c2cn(C)c3c2C(=O)C(OC)=CC3=O)n1 | 69.8 µM | > 100 µM | > 80.1 µM | > 100 µM | > 100 µM | > 100 µM | > 78 µM | > 100 µM | > 100 µM | 73.1 µM |
| COC1OC(Cn2cc([N+](=O)[O-])nc2C)C(O)C(O)C1O (centres undefined) | > 100 µM | > 100 µM | > 100 µM | > 100 µM | > 100 µM | > 100 µM | > 100 µM | > 100 µM | – | > 100 µM |
| CCCCCCCCCCCCCCCCCCOCC(O)CO (centres undefined) | > 25 µM | > 25 µM | > 25 µM | – | > 25 µM | > 22.5 µM | > 25 µM | > 25 µM | > 25 µM | > 3.96 µM |
| COc1ccc(NC(=O)NNS(=O)(=O)c2ccc(C)cc2)cc1 | > 100 µM | > 100 µM | > 100 µM | > 100 µM | > 100 µM | > 100 µM | > 100 µM | > 100 µM | > 100 µM | > 100 µM |
| CC(=O)N1N=C(c2ccc3ccccc3c2O)CC1c1ccc(N(C)C)cc1 (centres undefined) | > 100 µM | > 100 µM | > 100 µM | > 100 µM | > 100 µM | > 100 µM | > 100 µM | > 100 µM | > 100 µM | > 100 µM |
| COC(=O)[C@H](C)N(C)C(=O)[C@H](C)N1[C@@H](c2ccccc2)COC1(C)C | > 100 µM | > 100 µM | > 100 µM | > 100 µM | > 100 µM | > 100 µM | > 100 µM | > 100 µM | – | > 100 µM |
| Cc1cnc2[nH]c(-c3ccc(Cl)cc3)cc(=O)c2c1 | > 72.5 µM | > 100 µM | > 60.3 µM | > 100 µM | 19.8 µM | > 100 µM | > 100 µM | > 31.6 µM | > 100 µM | > 100 µM |
| Cn1c(N)c(/C=C/C(=O)Oc2ccccc2)c(=O)n(C)c1=O | > 100 µM | > 100 µM | > 100 µM | > 100 µM | > 100 µM | > 100 µM | > 100 µM | > 100 µM | > 100 µM | > 100 µM |
| CC1(C)CCC[C@@]2(C)C1CC[C@@]1(CO1)[C@@H]2/C=C\C(C=O)CC=O (some centres undefined) | > 100 µM | > 100 µM | > 28.1 µM | > 100 µM | > 69.5 µM | > 68.7 µM | > 100 µM | > 100 µM | > 100 µM | > 100 µM |

| Compound | TGI (MCF7 breast) | TGI (OVCAR-4 ovarian) | TGI (RPMI-8226 leukemia) | TGI (ACHN renal) | TGI (K-562 leukemia) | TGI (CCRF-CEM leukemia) | TGI (SK-MEL-2 melanoma) | TGI (OVCAR-5 ovarian) | TGI (SN12C renal) | TGI (A498 renal) |
| --- | --- | --- | --- | --- | --- | --- | --- | --- | --- | --- |
| Cc1ccc(CN2CCN(Cc3ccc(C)o3)C(C)C2)o1 (centres undefined) | > 100 µM | > 100 µM | > 100 µM | > 100 µM | > 100 µM | > 100 µM | > 100 µM | > 100 µM | > 100 µM | > 100 µM |
| CCOC(=O)c1ccc(N(CCOS(=O)(=O)c2ccc(C)cc2)CCOS(=O)(=O)c2ccc(C)cc2)cc1 | > 100 µM | > 100 µM | > 100 µM | > 100 µM | > 100 µM | > 100 µM | 66.8 µM | > 100 µM | – | > 100 µM |
| CC(=O)OC(C)c1cc2c(s1)C(=O)c1ccsc1C2=O (centres undefined) | 1.24 µM | 1.93 µM | 0.486 µM | 0.31 µM | 0.473 µM | 0.653 µM | 0.927 µM | 0.994 µM | 0.355 µM | 3.32 µM |
| COc1cc(C(=O)OC2CC34CCNC35CC(OC5(OC)C2O)c2cc3c(cc24)OCO3)ccc1O (centres undefined) | > 100 µM | > 100 µM | > 100 µM | > 100 µM | > 100 µM | > 100 µM | > 100 µM | > 100 µM | > 100 µM | > 100 µM |
| N#Cc1c(N)c2c(c(-c3ccccc3)c1-c1ccccc1)C(=O)N(O)C2=O | > 100 µM | > 100 µM | > 100 µM | > 100 µM | > 100 µM | > 100 µM | > 100 µM | > 100 µM | > 100 µM | > 100 µM |
| COC(=O)/C(C#N)=C/c1cc(C(C)(C)C)c(O)c(C(C)(C)C)c1 | 15.7 µM | > 51.2 µM | 3.54 µM | > 31.3 µM | > 47.8 µM | 9.69 µM | 4.92 µM | 8.51 µM | 8.17 µM | 8.37 µM |
| Cc1ccc(S(=O)(=O)NNC(=O)Nc2ccc([N+](=O)[O-])cc2)cc1 | > 100 µM | 89.4 µM | 78.5 µM | > 100 µM | > 100 µM | > 100 µM | > 100 µM | > 100 µM | > 100 µM | > 100 µM |
| Cc1ccc2c(c1)CC1(C2)Cc2ccc(C)cc2C1=O (centres undefined) | 89 µM | > 100 µM | 95.3 µM | > 100 µM | > 100 µM | 62.3 µM | 47.1 µM | > 100 µM | > 100 µM | > 100 µM |
| COc1nc2c(c(=O)[nH]1)N=C(c1ccc(Cl)cc1)CC(c1ccccc1)N2 (centres undefined) | > 100 µM | 57.4 µM | 65.8 µM | 52.3 µM | 67.1 µM | 44.9 µM | 60.1 µM | > 100 µM | 47.1 µM | > 100 µM |
| COc1cc(OC)nc(-n2c(N)c(C(=O)O)c3ccc([N+](=O)[O-])cc3c2=O)n1 | > 100 µM | > 100 µM | > 100 µM | > 100 µM | > 100 µM | > 100 µM | > 100 µM | > 100 µM | > 100 µM | > 100 µM |
| CCN1C/C(=C\c2ccc(Cl)cc2)c2[nH]c(=O)c(C#N)c(-c3ccc(Cl)cc3)c2C1 | > 100 µM | > 100 µM | > 100 µM | > 100 µM | > 100 µM | > 100 µM | > 100 µM | > 100 µM | > 100 µM | > 100 µM |
| COC(=O)[C@@H]1[C@H]2CC[C@]3(C)[C@@H](OC(C)=O)CC[C@H]3[C@@H]2CC[C@H]1C(C)=O | > 100 µM | – | > 100 µM | > 100 µM | > 100 µM | > 100 µM | > 100 µM | > 100 µM | > 100 µM | > 100 µM |
| CC1N=C(c2ccccc2)OC1=O (centres undefined) | > 100 µM | > 100 µM | > 100 µM | > 100 µM | > 100 µM | > 100 µM | > 100 µM | > 100 µM | > 100 µM | > 100 µM |
| COc1cc2c(cc1O)C(=O)O[C@@H]1CC=C3CCN(C)[C@H]3[C@H]21 | > 25 µM | > 25 µM | > 25 µM | > 25 µM | > 25 µM | > 25 µM | > 25 µM | > 25 µM | > 25 µM | > 25 µM |
| C=CCN1C(=O)CS/C1=N\NC(=O)CSc1nc2ccccc2c(=O)n1CC | > 100 µM | > 100 µM | > 100 µM | > 100 µM | > 100 µM | > 100 µM | > 100 µM | > 100 µM | > 100 µM | > 100 µM |
| CCOC(=O)c1nc2cc(F)cc(F)c2[nH]c1=O | > 100 µM | > 100 µM | > 100 µM | > 100 µM | > 100 µM | > 100 µM | > 100 µM | > 100 µM | > 100 µM | > 100 µM |
